US20250332173A1, “COMPOUNDS AND METHODS FOR MODULATING NUCLEIC ACID SPLICING” (REMIX THERAPEUTICS INC., priority 2021, published 2025)
Read-outs that look alike come from different tables or passages of the source.

Legend:
Type in all cases: cell-based, human
MYB mRNA = test: RT-qPCR splicing assay, MYB canonical junction (CJ) and alternative junction (AJ) mRNA; details: for AC50: increase in MYB alternative junction (AJ) mRNA, read-out: MYB AJ AC50
Summary of the method: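 Read-out is one-step RT-qPCR on cell lysates detecting the exon-exon junction of each isoform, normalized to a housekeeping gene (PPIA in A673, GAPDH or GUSB in K562).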

HTT = test: HiBiT protein abundance assay, HTT HiBiT K562 cell line; details: HiBiT K562 cell line, 24 hours, top dose 10 μM; read-out: Effect on protein abundance, HTT (IC50 category)
Summary of the method: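 Tagged-protein abundance measured by split-NanoBiT luminescence after lysis, following 24 h compound exposure (37° C; 10 μM top, 3-fold, 10 points; DMSO ≤0.25%) of HiBiT knock-in K562 cells. Percent response vs DMSO and unmodified-cell controls; 4-parameter logistic interpolation at 50% gave IC50.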

Target C = test: HiBiT protein abundance assay, Target C (Promega Nano-Glo HiBiT Lytic Detection System, knock-in K562 cell line); details: HiBiT K562 cell line, 24 hours, top dose 10 μM, read-out: Effect on protein abundance, Target C (IC50 category)
Summary of the method: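 Protein abundance was read by Nano-Glo HiBiT lytic luminescence after 24 h compound exposure (10-point, threefold series from 10 μM final) of HiBiT knock-in K562 cells. Parental K562 served as baseline; the 50%-abundance concentration was interpolated from a four-parameter logistic fit.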

[1] = Homo sapiens, Table 5 panel, canonical junction qPCR, compound concentration having 50% response in CJ decrease, read-out: MYB IC50 (decrease in CJ mRNA levels)
[2] = Homo sapiens, decrease in MYB canonical junction (CJ) mRNA, RT-qPCR, read-out: MYB CJ IC50

Structure (SMILES) | IC50 (MYB mRNA; [1]) | IC50 (MYB mRNA; [2]) | IC50 (HTT) | IC50 (Target C; Homo sapiens, K562, 24 h) | IC50 (MYB mRNA; Table 5 panel, canonical junction qPCR, compound concentration having 50% response in CJ decrease, read-out: MYB IC50 (decrease in CJ mRNA levels)) | IC50 (MYB mRNA; decrease in MYB canonical junction (CJ) mRNA, RT-qPCR, read-out: MYB CJ IC50) | IC50 (Target C) | AC50 (MYB mRNA; Homo sapiens, RT-qPCR) | AC50 (MYB mRNA; RT-qPCR)
Cc1cn2cc(-c3ccc4c(c3)CCN(C3CCNCC3)C4=O)cc(F)c2n1 [Compound 247] | 0.1 to 1 µM | 0.1 to 1 µM | 0.1 to 1 µM | 1 to 10 µM |  |  |  | 0.1 to 1 µM | 
Cc1cn2nc(-c3cc(F)c4c(=O)n(C5CCNCC5)cnc4c3)cc(C)c2n1 [Compound 243] | < 0.1 µM | < 0.1 µM | < 0.1 µM | < 0.1 µM |  |  |  | < 0.1 µM | 
Cc1nc2c(F)cc(-c3ccc4c(=O)n(C5CCNCC5)ncc4c3)cc2s1 [Compound 253] | 1 to 10 µM | 1 to 10 µM | 1 to 10 µM | 1 to 10 µM |  |  |  | 1 to 10 µM | 
Cc1cn2nc(-c3ccc4c(=O)n(C5CCN(C)CC5)ncc4c3)cc(C)c2n1 [Compound 265] | 0.1 to 1 µM | < 0.1 µM | < 0.1 µM | 0.1 to 1 µM |  |  |  | 0.1 to 1 µM | 
Cc1cn2cc(-c3ccc4c(=O)n(C5CCNCC5)cnc4c3)c(C)cc2n1 [Compound 244] | > 10 µM | > 10 µM | > 10 µM | > 10 µM |  |  |  | > 10 µM | 
Cc1cn2cc(-c3ccc4c(c3)CCN(C3CCNCC3)C4=O)cc(C(F)(F)F)c2n1 [Compound 252] | 1 to 10 µM | 1 to 10 µM | > 10 µM | > 10 µM |  |  |  | 1 to 10 µM | 
Cn1cc2ccc(-c3ccc4c(=O)n(C5CCNCC5)ncc4c3)cc2n1 [Compound 263] | > 10 µM | > 10 µM | > 10 µM | 1 to 10 µM |  |  |  | > 10 µM | 
Cc1cn2nc(-c3ccc4c(=O)n(C5CCNC5)ncc4c3)cc(C)c2n1 (stereo not shown) [Compound 264] | 1 to 10 µM | 1 to 10 µM | 1 to 10 µM | > 10 µM |  |  |  | 1 to 10 µM | 
Cc1cn2nc(-c3ccc4c(=O)n([C@@H]5CCNC6(CC6)C5)cnc4c3)cc(C)c2n1 [Compound 444] |  |  | < 0.1 µM |  | < 0.1 µM | < 0.1 µM | 0.1 to 1 µM |  | < 0.1 µM
Cn1cc2cc(-c3ccc4c(=O)n(C5CCNCC5)ncc4c3)cc(F)c2n1 [Compound 249] | 1 to 10 µM | 1 to 10 µM | 1 to 10 µM | 1 to 10 µM |  |  |  | 1 to 10 µM | 
Cc1nc2c(F)cc(-c3ccc4c(=O)n(C5CCNCC5)cnc4c3)cc2o1 [Compound 245] | 0.1 to 1 µM | 0.1 to 1 µM | 0.1 to 1 µM | 0.1 to 1 µM |  |  |  | 0.1 to 1 µM | 
Cc1cn2cc(-c3ccc4c(=O)n(C5CCN(C)CC5)cnc4c3)c(C)cc2n1 [Compound 246] | 1 to 10 µM | 1 to 10 µM | 1 to 10 µM | 1 to 10 µM |  |  |  | 1 to 10 µM | 
Cc1nc2c(F)cc(-c3ccc4c(=O)n(C5CCNCC5)ncc4c3)cc2o1 [Compound 250] | 0.1 to 1 µM | 0.1 to 1 µM | < 0.1 µM | 0.1 to 1 µM |  |  |  | 0.1 to 1 µM | 

Continued, in another order:

IC50 (MYB mRNA; [1]) | IC50 (MYB mRNA; [2]) | IC50 (HTT) | IC50 (Target C; Homo sapiens, K562, 24 h) | IC50 (MYB mRNA; Table 5 panel, canonical junction qPCR, compound concentration having 50% response in CJ decrease, read-out: MYB IC50 (decrease in CJ mRNA levels)) | IC50 (MYB mRNA; decrease in MYB canonical junction (CJ) mRNA, RT-qPCR, read-out: MYB CJ IC50) | IC50 (Target C) | Structure (SMILES) | AC50 (MYB mRNA; Homo sapiens, RT-qPCR) | AC50 (MYB mRNA; RT-qPCR)
1 to 10 µM | 1 to 10 µM | 1 to 10 µM | 1 to 10 µM |  |  |  | Cc1cn2cc(-c3ccc4c(=O)n(C5CCNCC5)ncc4c3)c(C)cc2n1 [Compound 254] | 1 to 10 µM | 
1 to 10 µM | 0.1 to 1 µM | 1 to 10 µM | 1 to 10 µM |  |  |  | Cc1cn2cc(-c3ccc4c(=O)n(C5CCNCC5)ncc4c3)cc(C(F)(F)F)c2n1 [Compound 262] | 1 to 10 µM | 
0.1 to 1 µM | 0.1 to 1 µM | 0.1 to 1 µM | 0.1 to 1 µM |  |  |  | Cc1cc(-c2ccc3c(=O)n(C4CCNCC4)ncc3c2)cc2cn(C)nc12 [Compound 251] | 0.1 to 1 µM | 
0.1 to 1 µM | 0.1 to 1 µM | < 0.1 µM | 0.1 to 1 µM |  |  |  | Cc1cn2cc(-c3ccc4c(=O)n(C5CCNCC5)ncc4c3)cc(F)c2n1 [Compound 248] | 0.1 to 1 µM | 
> 10 µM | > 10 µM | > 10 µM | > 10 µM |  |  |  | O=c1c2ccc(-c3cn[nH]c3)cc2cnn1C1CCNCC1 [Compound 261] | > 10 µM | 
0.1 to 1 µM | 0.1 to 1 µM | 0.1 to 1 µM | 0.1 to 1 µM |  |  |  | Cc1cn2nc(-c3ccc4c(=O)n(C5CCNCC5)ncc4c3)nc2c(C)n1 [Compound 259] | 0.1 to 1 µM | 
1 to 10 µM | 1 to 10 µM | > 10 µM | > 10 µM |  |  |  | Cc1cn2cc(-c3ccc4c(=O)n(C5CCNCC5)ncc4c3)ncc2n1 [Compound 255] | 1 to 10 µM | 
0.1 to 1 µM | 0.1 to 1 µM | 0.1 to 1 µM | 0.1 to 1 µM |  |  |  | Cc1cn2cc(-c3ccc4c(=O)n(C5CCNCC5)ncc4c3)cc(Cl)c2n1 [Compound 256] | 0.1 to 1 µM | 
1 to 10 µM | 0.1 to 1 µM | 0.1 to 1 µM | 1 to 10 µM |  |  |  | Cc1cn2nc(-c3ccc4c(=O)n(C5CCNCC5)ncc4c3)cc2c(C)n1 [Compound 260] | 1 to 10 µM | 
0.1 to 1 µM | 0.1 to 1 µM | 0.1 to 1 µM | 0.1 to 1 µM |  |  |  | Cc1cn2cc(-c3ccc4c(=O)n(C5CCNCC5)ncc4c3)cc(C)c2n1 [Compound 257] | 0.1 to 1 µM | 
